{"source": "patent US20060183733A1", "about": "“Treating microvasculature diseases with acetyl cholinesterase inhibitors” (priority 2005, published 2006)", "key": {"[1]": {"test_system": "patients with Parkinson's disease", "settings": "donepizil decreased from 10 mg to 5 mg daily"}, "[2]": {"test_system": "patients with myofascial pain / fibromyalgia", "assay": "Patient case histories: fibromyalgia / myofascial pain syndrome", "type": "in vivo, human", "settings": "donepizil 5 mg daily", "text": "The present invention provides a method for treating fibromyalgia and myofascial pain syndrome by increasing tissue levels of acetylcholine. Acetylcholine is the neurotransmitter of the parasympathic nervous system. The inventive method increases the relative amount of parasympathetic transmission and thereby facilitates resolution of the pain areas and diminishes the need for narcotics and polypharmacy. The reduction in the use of narcotics, NSAIDs, and tricyclic antidepressants and other medications used for pain having their deleterious side effects is a major benefit. By administration of acetyl cholinesterase inhibitor, the relative concentrations of acetylcholine are increased and available to propagate the impulses of the parasympathic nervous systems and within the non-neuronal acetylcholine receptors diminishing pain and spasms. […] The influence of non-neuronal acetylcholine receptors affected by enhanced levels of acetylcholine produces a reduction in pro-inflammatory mediators and increased blood flow to the nerve fibers involved in pain transmission. The net effect is a reduction in inflammation and improved blood flow to the vasovasorum of the affected nerves reducing the painful sensations."}, "[3]": {"test_system": "patients with urinary retention", "assay": "Patient case histories: urinary retention (voiding trials, post void residuals)"}, "[4]": {"test_system": "patients with diabetic polyneuropathy", "type": "in vivo, human", "settings": "drug stopped after initial improvement", "text": "The symptoms of motor and sensory loss of diabetic polyneuropathy are ameliorated by acetylcholinesterase inhibitions by increasing concentration of acetylcholine, the principle neurotransmitter of the parasympathetic nervous system. By augmenting the trophic input of nerves of parasympathic nervous system; pain and dyserethesia are diminished and weakness/atrophy of muscles are diminished. The clinical observation in non-Alzheimer's patients is an improvement in motor and sensory function following treatment with effective doses of an acetylcholinesterase inhibitor. Improved blood flow within the microvascular circulation supplying the vasovasorum of the nerves produces the beneficial effect. By restoring blood flow to the vasovasorum of the nerves ischemic pain is relieved and normal function of the nerve is allowed to occur. The process of vasodilatation of the microvascular circulation is mediated through both neuronal and non-neuronal acetylcholine receptors stimulation by acetylcholine. Enhancement in acetylcholine levels is effected through treatment with acetylcholinesterase inhibitors.\nThe physiologic shift favoring vasoconstriction that is associated with diabetes is reversed following administration of an acetylcholinesterase inhibitor allowing perfusion of the microvasculature, restoring blood flow to ischemic motor and sensory nerves damaged by the effects of diabetes."}, "[5]": {"test_system": "patients with lymphedema", "type": "in vivo, human", "settings": "donepizil 5 mg orally daily", "text": "The improvement in perfusion within the small arterioles decreases the hydrostatic pressure at the end arterioles and therefore reduces interstitial fluid accumulation that impedes the return of lymph fluid within the lymphatic vessels. The physics model for this phenomenon makes use of Bernouli's equation and its relationship to a Venturi tube. Hydrostatic pressure proximal to a relative stricture creates a pressure gradient that leads to increased transudation that overwhelms the capacity of the lymphatic system to manage. The vasodilatory effects of the parasympathetic nervous system upon small arterioles produces improved perfusion and lessens the accumulation of lymphedema. A common example of lymphedema occurs following joint replacement surgery with swelling that persists for three to six months and sometimes permanently. Lymphedema following joint replacement surgery slows recovery and creates pain while predisposing to deep vein thrombosis and infection."}, "[6]": {"test_system": "patients with rheumatologic conditions (RA, SLE, PMR, polymyositis)", "assay": "Patient case histories: rheumatological conditions", "type": "in vivo, human", "text": "The use of an acetylcholinesterase inhibitor raises level of acetylcholine by inhibition of cholinesterase. The Increased levels of acetylcholine stimulate neuronal receptors of the parasympathetic nervous system and non-neuronal receptors associated with the intima of blood vessels and leukocytes. This dual effect of improving flow within the microvascular circulation and stabilization of leukocytes and their adhesion to the wall of blood vessel produces the anti-inflammatory effect that is observed with the use of an acetylcholinesterase inhibitor for treatment of rheumatologic diseases."}, "[7]": {"test_system": "patients with chronic renal insufficiency", "assay": "Patient case histories: chronic renal insufficiency (serum creatinine, BUN)", "type": "in vivo, human", "text": "To postpone or avoid the sequelae of chronic renal insufficiency, treatment with acetylcholinesterase inhibitors increase the concentration of acetycholine available to promote blood flow to the renal cortex preventing loss of nephrons and allowing existing renal parenchyma to provide the vital function of the kidney. Just as parasympathetic outflow provide homeostatic neural input to the elimination of function of the intestine, the same parasympathetic innervation provides vasodilatation of the small arterioles supplying the cortex of the kidneys allowing for optimal functioning."}, "[8]": {"test_system": "patients with phantom pain", "assay": "Patient case histories: phantom pain following amputation", "type": "in vivo, human", "settings": "donepizil 5 mg daily", "text": "The present invention further provides a method of treating phantom pain following amputation in both upper and lower extremities. “Phantom pain” is a phenomenon described following amputation of either an upper or lower extremity. The sensation is common following amputation and present with varying degrees of discomfort and debility. A patient with phantom pain is typically treated with antidepressants, Neurontin® (gabapeninand) narcotics to a varying degree. The use of acetylcholinesterase inhibitors decreases the need for narcotics and generally eliminates the need for poly pharmacy improving pain, enhancing wound healing and improved sleep pattern in amputee patients. The dose of acetylcholinesterase inhibitor is titrated to GI (gastrointestinal) tolerance with bowel movement consistency and frequency the determining factors. Treatment with acetylcholinesterase inhibitor increases the available acetylcholine which is the neurotransmitter responsible for activation of the parasysmpathic nervous system appear responsible for Noxious symptoms of phantom pain for discomfort. The present invention provides a method of treating phantom pain associated with amputation of either upper or lower extremity."}}, "note": "Values joined by “and” are separate entries in the source; they are usually repeats but may differ in a detail not shown here. Identical values can stand only once. “Also recorded” adds a separate entry of the source."}
{"smiles": "COc1cc2c(cc1OC)C(=O)C(CC1CCN(Cc3ccccc3)CC1)C2", "note": "(stereo not shown) [donepizil, 1-benzyl-4->(5,6-dimethoxy-1-indanon)-2-yl methylpiperidine]", "values": [{"measurement": "course after dose reduction", "setting": "[1]", "result": "notable deterioration in their motor function and a return of Parkinsonian symptoms"}, {"measurement": "clinical outcome (pain, narcotic use)", "setting": "[2]", "result": "able to eliminate their use of long acting; also recorded: decreased pain complaints in their neck; also recorded: controlled without the use of narcotics or NSAID's; also recorded: improvement in their back pain complaints; also recorded: pain complaints were significantly reduced over a four-week period; also recorded: no recurrence of their back pain or leg cramps; also recorded: no recurrence of cramps"}, {"measurement": "side effects", "setting": "[2]", "result": "no reported GI upset or diarrhea; also recorded: well tolerated; also recorded: no nausea or diarrhea"}, {"measurement": "post void residuals (PVR's)", "setting": "[3]; donepizil 5 mg orally daily with Detrol LA 2 mg orally daily", "result": "less than 100 cc"}, {"measurement": "voiding trial", "setting": "[3]; donepizil 5 mg orally daily, 24-48 hours or more before the trial", "result": "able to void without incident; also recorded: successful"}, {"measurement": "course after the drug was withdrawn or lapsed", "setting": "[4]", "result": "progressive decline in their ability and strength over the next 7-10 days"}, {"measurement": "side effects", "setting": "[5]", "result": "suffered symptoms of diarrhea or nausea"}, {"measurement": "clinical outcome (movement, pain, sleep, edema)", "setting": "[6]; donepizil 5 mg orally daily", "result": "return of movement in their feet bilaterally; also recorded: improved sleep pattern and decreased pain; also recorded: edema previously noted in their feet bilaterally resolved; also recorded: became ambulatory; also recorded: improvement in their pain complaints and decreased swelling in their ankles bilaterally"}, {"measurement": "erythrocyte sedimentation rate (ESR), follow up", "setting": "[6]; donepizil 5 mg orally daily, Polymyalgia Rheumatica", "result": "in the normal range"}, {"measurement": "clinical outcome (strength, swelling, vision)", "setting": "[6]; donepizil 10 mg daily, Systemic Lupus Erythematosis", "result": "improved strength in their arms; also recorded: resolved as well as dysesthesias; also recorded: improved but not sufficient to allow for ambulation; also recorded: no return of vision; also recorded: return of movement in their feet bilaterally with decreased lower extremity swelling"}, {"measurement": "post void residuals", "setting": "[6]; donepizil 10 mg, SLE patient with urinary retention", "result": "less than 100 cc"}, {"measurement": "side effects", "setting": "[6]; donepizil 5-10 mg daily", "result": "no symptoms of diarrhea or nausea; also recorded: without incident, adverse side effects or deterioration in their condition; also recorded: no symptoms of diarrhea; also recorded: no untoward side effects"}, {"measurement": "serum creatinine", "setting": "[7]; donepizil 5 mg daily one month then 10 mg daily one month, before treatment 1.8", "result": 0.8}, {"measurement": "serum creatinine", "setting": "[7]; donepizil 5 mg one week then 10 mg daily, two weeks of treatment, 5.5 on admission, on hemodialysis (Parkinson's patient)", "result": 4.2}, {"measurement": "side effects", "setting": "[7]; donepizil 5 mg orally daily", "result": "no untoward side effects; also recorded: no evidence of metabolic acidosis or hyperkalemia; also recorded: no adverse side effects"}, {"measurement": "serum creatinine", "setting": "[7]; donepizil 5 mg orally daily one month after switch from galantamine, 1.8 before any treatment", "result": 1.0}, {"measurement": "BUN (blood urea nitrogen)", "setting": "[7]; donepizil 5 mg orally daily one month after switch from galantamine, 32 before any treatment", "result": 14}, {"measurement": "serum creatinine", "setting": "[7]; donepizil 5 mg orally daily, 4 weeks/one month, before treatment 1.7, 1.8, 1.4, 1.6, 1.7", "result": "1.0 and 1.4 and 1.1 and 1.6 and 0.9"}, {"measurement": "serum creatinine", "setting": "[7]; donepizil 5 mg orally daily, about 6 weeks, before treatment b104 1.4, b106 1.8", "result": "1.0 and 1.1"}, {"measurement": "BUN (blood urea nitrogen)", "setting": "[7]; donepizil 5 mg orally daily, about 6 weeks, before treatment b104 37, b106 30", "result": "21 and 19"}, {"measurement": "serum creatinine", "setting": "[7]; donepizil 5 mg orally daily, three weeks, before treatment 2.8, on lisinopril", "result": 1.4}, {"measurement": "BUN (blood urea nitrogen)", "setting": "[7]; donepizil 5 mg orally daily, three weeks, before treatment 39", "result": 26}, {"measurement": "serum creatinine", "setting": "[7]; donepizil 5 mg orally daily, two to three months, before treatment 1.7, 1.8, 1.7", "result": "1.1 and 0.9 and 1.2"}, {"measurement": "BUN (blood urea nitrogen)", "setting": "[7]; donepizil 5 mg orally daily, two to three months, before treatment b96 48, b110 35", "result": "20 and 19"}, {"measurement": "BUN (blood urea nitrogen)", "setting": "[7]; donepizil 5 mg orally daily, two weeks, before treatment 30", "result": 22}, {"measurement": "serum creatinine", "setting": "[7]; donepizil 5 mg orally daily, up to two weeks, before treatment b100 1.6, b106 1.8", "result": 1.3}, {"measurement": "serum creatinine", "setting": "[7]; donepizil 10 mg daily continued for the next month, 5.5 on admission, hemodialysis discontinued", "result": 2.1}, {"measurement": "clinical outcome (phantom pain, sleep)", "setting": "[8]", "result": "dramatic improvement in here phantom discomfort; also recorded: prompt improvement in their pain control; also recorded: phantom pain diminished to the point they no longer required Oxycotin®; also recorded: notable improvement in leg discomfort; also recorded: much improved phantom discomfort and improved sleep; also recorded: no symptoms of vascular insufficiency in their contralateral extremity"}]}
